Measured values reported in ChEMBL document CHEMBL4825758, “Discovery of G Protein-Biased Antagonists against 5-HT7R” (J Med Chem, 2021).

Assay: Metabolic stability in human liver microsomes assessed as parent compound remaining at 1 uM preincubated for 5 mins followed by NADPH regeneration system addition and measured after 30 mins by LC-MS analysis
Assay type: ADME, Microsome
Details: time 35 min, read-out: Stabilty

**Q.** Which remaining at 0.5 h, 1 µM does the source give for Clc1cccc(-c2n[nH]cc2N2CCCNCC2)c1 here?
**A.** 27.5%
